Laboratory results taken from ChEMBL document CHEMBL1201862, “PubChem BioAssay data set” (2004).
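How tested: cells in 96-well plates exposed to compound for 48 hours at five concentrations. GI50: concentration for 50% inhibition of growth.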 Active and inactive are the calls of the source. Cut-off read from the data, not from the text of the source: active = GI50 up to about 1.1 µM and inactive = higher.

Assays:
Test in all cases: NCI anticancer screen, dose series, 48 h
[1] = system: M14
[2] = system: NCI-H460
[3] = system: SF-295
[4] = system: PC-3
[5] = system: HOP-62
[6] = system: SF-539
[7] = system: RXF 393
[8] = system: MOLT-4
[9] = system: OVCAR-5
[10] = system: A498
[11] = system: HCT-116
[12] = system: SNB-75
[13] = system: SW-620
[14] = system: NCI-H522
[15] = system: SR
[16] = system: ACHN
[17] = system: MDA-N
[18] = system: MCF7
[19] = system: HL-60
[20] = system: SK-OV-3

Measured: GI50

COC1/C=C\OC2(C)Oc3c(C)c(O)c4c(O)c(c(/C=N\OCCCc5ccccc5)c(O)c4c3C2=O)NC(=O)/C(C)=C\C=C/C(C)C(O)C(C)C(O)C(C)C(OC(C)=O)C1C (stereo not given)
inactive: [1] 2.71 µM | [2] 3.49 µM | [3] 4.72 µM | [4] 3.18 µM | [5] 2.59 µM | [6] 2.93 µM | [7] 2.9 µM | [8] 3.46 µM | [9] 6.85 µM | [10] 6.93 µM | [11] 2.3 µM | [12] 2.62 µM | [13] 4.36 µM | [14] 3.54 µM | [15] 2.81 µM | [16] 2.56 µM | [17] 3.44 µM | [18] 1.17 µM | [19] 3.01 µM | [20] 4.42 µM

COc1ccc2nc(N/N=C/C(C)=N/Nc3cc(C)c4cc(OC)ccc4n3)cc(C)c2c1
inactive: [1] 39.1 µM | [2] 14.7 µM | [3] 25.1 µM | [4] 22.3 µM | [5] 28.6 µM | [6] 17.8 µM | [7] 39.9 µM | [8] 21.2 µM | [9] 27.4 µM | [10] > 68.2 µM | [11] 14.2 µM | [12] 21.9 µM | [13] 17 µM | [14] 20.3 µM | [15] 5.11 µM | [16] 26.7 µM | [17] 23.7 µM | [18] 14.3 µM | [19] 18.5 µM | [20] > 83.8 µM

Br/C(=N\N=c1/nn[nH][nH]1)c1ccncc1
inactive: [1] > 100 µM | [2] > 100 µM | [3] > 100 µM | [4] > 100 µM | [5] > 100 µM | [6] > 100 µM | [7] > 100 µM | [8] > 100 µM | [9] > 100 µM | [10] > 100 µM | [11] > 100 µM | [12] > 100 µM | [13] > 100 µM | [14] > 100 µM | [15] > 100 µM | [16] > 100 µM | [17] > 100 µM | [18] > 100 µM | [19] > 100 µM | [20] > 100 µM
